Values joined by “and” are separate entries in the source; they are usually repeats but may differ in a detail not shown here. Equal entries are not always repeated. Where two headings read alike, the source gives them in different places. Marks after values point to notes of the source that are not given here.
Assays:
MtrR = biological target: T1, MtrR (Neisseria gonorrhoeae, UniProt P39897); assay: Isothermal titration calorimetry, wild-type MtrR with bile salts; assay type: binding; details: ITC; for Stoichiometry N, WT MtrR: bile salt per MtrR
T1 construct: A codon optimized gene of MtrR was synthesized by GenScript and cloned into the; hexahistidine tag with TEV protease site (N, cleaved yes); made in house
T1 sequence (P39897 whole entry): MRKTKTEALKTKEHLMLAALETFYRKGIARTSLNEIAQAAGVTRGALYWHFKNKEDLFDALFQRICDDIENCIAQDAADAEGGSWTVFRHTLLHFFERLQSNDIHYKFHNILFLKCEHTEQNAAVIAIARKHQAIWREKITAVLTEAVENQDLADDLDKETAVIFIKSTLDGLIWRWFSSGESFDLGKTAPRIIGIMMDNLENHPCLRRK
Protocol: (§1) Purified MtrR was dialyzed extensively against buffer containing 20 mM Tris [pH 8.0], 200 mM NaCl, 10% glycerol, and 1 mM TCEP overnight at 4°C. The stock solutions and the necessary dilutions of the bile salts were prepared using this dialysis buffer. Titrations with 20 μM MtrR in the cell and 250 μM ligand in the syringe were performed using a VP-ITC microcalorimeter (Microcal Inc.). All measurements were conducted at 25°C with a stirring speed of 200 rpm. After subtraction of germane blank data, the titration data were analyzed using the program ORIGIN 5.0.
(§2) Protein purification for Isothermal Titration Calorimetry experiments and mutant […]
A codon optimized gene of MtrR was synthesized by GenScript and cloned into the pMCSG7 vector in- frame with the N-terminal Hexa- histidine tag and tobacco etch virus (TEV) protease cleavage site. This construct was used as the template for site- directed mutagenesis and to generate wild- type data in supplemental f igures 5-6 and Isothermal Titration Calorimetry data. This protein was overexpressed and purified as described in the “Materials and Methods” of the document, except the he xa -histidine tag MtrR was cleaved by TEV protease following NiNTA affinity chromatography. Cleaved MtrR was purified from tagged MtrR and cleaved hexa- histidine tag by Ni- NTA aff inity chromatography and then further purified by size exclusion chromatography (S200).

MtrR(W136L) = biological target: T2, MtrR(W136L) (Neisseria gonorrhoeae, UniProt P39897, W136L); assay: Isothermal titration calorimetry, MtrR(W136L) with bile salts; assay type: binding; details: ITC
T2 construct: hexahistidine tag with TEV protease site (N, cleaved yes); made in house; host or cells: Rosetta Gami B(DE3) pLysS cells (Novagen)
T2 sequence (P39897 whole entry W136L): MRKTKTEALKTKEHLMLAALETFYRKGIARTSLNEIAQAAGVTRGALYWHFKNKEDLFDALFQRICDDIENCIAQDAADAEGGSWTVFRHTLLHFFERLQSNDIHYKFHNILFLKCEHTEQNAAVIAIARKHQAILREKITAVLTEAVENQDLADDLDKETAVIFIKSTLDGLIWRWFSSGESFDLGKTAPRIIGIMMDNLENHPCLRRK
Protocol: as §1, §2
A codon optimized gene of MtrR was synthesized by GenScript and cloned into the pMCSG7 vector in- frame with the N-terminal Hexa- histidine tag and tobacco etch virus (TEV) protease cleavage site. This construct was used as the template for site- directed mutagenesis and to generate wild- type data in supplemental f igures 5-6 and Isothermal Titration Calorimetry data. This protein was overexpressed and purified as described in the “Materials and Methods” of the document, except the he xa -histidine tag MtrR was cleaved by TEV protease following NiNTA affinity chromatography. […]

MtrR-mtrCDE promoter = biological target: T3, MtrR-mtrCDE promoter (Neisseria gonorrhoeae, UniProt P39897); assay type: biochemical; details: for Fold increase in Kd: versus no bile salt
T3 construct: nearly all 210 residues of each protomer observed, with the exception of residues 1 through 7; hexahistidine tag (thrombin-cleavable) (cleaved yes); made in house
T3 sequence (P39897 whole entry): as the sequence (P39897 whole entry) above
Protocol: Thus, to rule out any effect of alkaline pH on MtrR-DNA interactions, we buffered the CAPS used in the FP assay to pH 8.0 before testing its effect on DNA binding.
Fluorescence polarization-based DNA binding experiments were performed with a Panvera Beacon 2000 fluorescence polarization system (Invitrogen) utilizing 5′-fluorescein-labeled DNA. Polarization (P) of such 5′-labeled DNA increases as a function of protein binding, and equilibrium dissociation constants are determined by curve fitting the values of millipolarization (P × 10^−3) units against the protein concentration. To determine the effects of various ligands on MtrR-DNA binding, 1 nM 5′-fluoresceinated oligodeoxynucleotide duplexes containing the mtrC operator site in 1 ml binding buffer (20 mM Tris HCl [pH 8.0], 100 mM NaCl, and 2.5% glycerol) were titrated against increasing concentrations of purified MtrR in the presence or absence of the indicated concentrations of bile salt, and the resulting changes in polarization were measured. All the samples were excited at 490 nm, and their polarized emissions were measured at 530 nm. All the data were plotted using Kaleidagraph (Synergy Software) and Prism (GraphPad Software), and the resulting plots were fitted to the following equation: P = {(Pbound − Pfree)[protein]/(KD + [protein])} + Pfree, where P is the polarization measured at a given protein concentration, Pfree is the initial polarization of the free ligand, Pbound is the maximum polarization of specifically bound ligand, KD is the equilibrium dissociation constant, and [protein] is the protein concentration. Nonlinear least-squares analysis was used to determine Pbound, and Kd. The reported binding constants are the average values from at least three independent experimental measurements.

[1] = test system: mtrCp-lacZ in FA19 (wild type); assay: β-Galactosidase assay of mtrCp-lacZ fusion, strain FA19; assay type: cell-based, Neisseria gonorrhoeae
Text: (§3) To determine if sublethal concentrations of bile salts could relieve MtrR-mediated repression of mtrC (and, by inference, the mtrCDE operon), a translational fusion of the promoter region of mtrC to lacZ was used. This fusion system was made in the wild-type (FA19) background ([41]) and cloned into mtrR deletion mutant strain JF1. Using the mtrCp-lacZ fusion, the β-galactosidase activity of the strains grown in the presence or absence of the bile salt chenodeoxycholate, taurodeoxycholate, or glycocholate was measured. The β-galactosidase levels were determined from strains grown overnight on GC agar supplemented with the bile salt at concentrations 4-fold below their specific MICs to ensure that the concentration of each bile salt was in the same biological range (the bile salt concentrations are listed in Table 2).
N. gonorrhoeae strains FA19 (wild type) and JF1 (FA19 ΔmtrR) containing a translational mtrCp-lacZ fusion with the proAB locus were used to assess the ability of bile salts to induce mtrC expression; the construction of these strains has been described previously ([41]). The MIC of bile salts for each strain used in the β-galactosidase assay was determined using a 2-fold agar dilution method ([32]). Gonococci were grown overnight on GC agar (Difco Laboratories) supplemented with a bile salt (glycocholate, chenodeoxycholate, or taurodeoxycholate) at concentrations that were 4-fold below the MIC. After overnight growth at 37°C under 3.8% (vol/vol) CO2, the bacteria were scraped from the agar plate, resuspended in 1 ml phosphate-buffered saline (pH 7.4), and lysed by freeze-thawing three times, after which the cell debris was pelleted by centrifugation. The lysate was then used to determine β-galactosidase levels as described previously ([63]). All experiments were performed in triplicate with at least three biological replicates conducted on different days.

[2] = test system: mtrCp-lacZ in JF1 (FA19 ΔmtrR); assay type: cell-based, Neisseria gonorrhoeae
Text: as §3
N. gonorrhoeae strains FA19 (wild type) and JF1 (FA19 ΔmtrR) containing a translational mtrCp-lacZ fusion with the proAB locus were used to assess the ability of bile salts to induce mtrC expression; the construction of these strains has been described previously ([41]). The MIC of bile salts for each strain used in the β-galactosidase assay was determined using a 2-fold agar dilution method ([32]). […]

## C[C@H](CCC(=O)O)[C@H]1CC[C@H]2[C@@H]3[C@H](O)C[C@@H]4C[C@H](O)CC[C@]4(C)[C@H]3CC[C@]12C [Chenodeoxycholate, chenodeoxycholate]
MtrR
  ΔH, WT MtrR: -4127 ± 739 cal/mol
  ΔS, WT MtrR: 10.85 ± 3.13 cal/mol/deg
  Stoichiometry N, WT MtrR: 0.444 ± 0.097
MtrR; 25°C, 20 μM MtrR in cell, 250 μM ligand in syringe, read-out: Kd of bile salt binding to WT MtrR
  Kd: 4.4 µM and ~5 µM
MtrR; listed as CDCA
  Stoichiometry N, WT MtrR: ~ 0.5
MtrR; listed as chenodeoxycholate
  Stoichiometry N, WT MtrR: one molecule of bile salt per MtrR dimer
MtrR(W136L)
  Kd of bile salt binding to MtrR(W136L): No binding
MtrR-mtrCDE promoter; 1 mM bile salt
  Fold increase in Kd: 8.3
MtrR-mtrCDE promoter; 1 mM bile salt, listed as chenodeoxycholate
  Fold increase in Kd: 8- to 28
MtrR-mtrCDE promoter; 5 mM bile salt
  Fold increase in Kd: No binding
MtrR-mtrCDE promoter; 5 mM bile salt, no bile salt 18 ± 3 nM
  Kd of MtrR-mtrCDE promoter binding in the presence of bile salt: no DNA binding by MtrR was detected
[1]; FA19 compared with ΔmtrR strain JF1, sublethal bile salt
  MtrR-dependent derepression of the mtrC promoter: clearly evident
[1]; strain FA19, grown on GC agar with bile salt 4-fold below MIC versus normal agar, mM concentration in parentheses in the cell
  Fold increase of mtrCp-lacZ activity: 5.09 (0.2)
[2]
  Fold increase of mtrCp-lacZ activity: 1.37 (0.2)^b
